From patent US10189809B2, “SGC stimulators” (Ironwood Pharmaceuticals, Inc., priority 2010, dated 2019)
pEC50: −log10 of the molar value. Where two headings read alike, the source gives them in different places.

What was measured:
[1] = target: T1, Human soluble guanylate cyclase enzyme (hsGC) (Homo sapiens (Human), UniProt Q02108+Q02153); assay: Purified human sGC enzyme activity assay; format: biochemical; conditions: for sGC Enzyme (fold increase at 30 μM): without the addition of SNP
Procedure, shortened: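 Purified human sGC (5 ng) incubated 30 min at 37° C with compound at 10 or 30 μM final in pH 8.0 Tris with 300 μM GTP, 2 mM MgCl2, 2 mM DTT and 1 mM IBMX, then stopped with cold methanol. cGMP quantified against a standard curve. Specific activity (nmol cGMP/mg sGC/min) expressed as fold-change over DMSO control.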

[2] = target: T2, soluble guanylate cyclase (sGC) (Homo sapiens (Human), UniProt Q02108+Q02153); assay: sGC-HEK-cGMP assay run with SNP incubation (HEK WC assay); format: cell-based; conditions: for HEK WC Assay (fold increase at 30 μM in the presence of 10 μM SNP): compound at 30 μM; for pEC50: in the presence of 10 uM SNP
T2 sequence (Q02153 whole entry): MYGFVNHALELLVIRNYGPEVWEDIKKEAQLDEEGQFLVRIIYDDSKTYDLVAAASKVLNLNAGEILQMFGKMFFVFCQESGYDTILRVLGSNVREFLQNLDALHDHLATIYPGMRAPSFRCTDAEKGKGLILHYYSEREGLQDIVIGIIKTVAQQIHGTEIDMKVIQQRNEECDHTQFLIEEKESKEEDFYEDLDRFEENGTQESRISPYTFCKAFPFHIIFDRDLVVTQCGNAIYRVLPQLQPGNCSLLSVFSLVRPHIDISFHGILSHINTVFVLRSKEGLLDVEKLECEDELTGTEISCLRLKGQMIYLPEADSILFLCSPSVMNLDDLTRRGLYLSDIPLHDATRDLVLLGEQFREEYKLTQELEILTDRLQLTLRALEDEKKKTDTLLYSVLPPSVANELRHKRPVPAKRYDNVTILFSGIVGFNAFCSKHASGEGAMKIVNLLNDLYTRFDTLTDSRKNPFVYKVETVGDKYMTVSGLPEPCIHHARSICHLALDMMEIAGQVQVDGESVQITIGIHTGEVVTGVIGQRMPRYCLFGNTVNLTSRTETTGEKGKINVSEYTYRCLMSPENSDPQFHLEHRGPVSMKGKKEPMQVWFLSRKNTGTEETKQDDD
T2 sequence (Q02108 whole entry): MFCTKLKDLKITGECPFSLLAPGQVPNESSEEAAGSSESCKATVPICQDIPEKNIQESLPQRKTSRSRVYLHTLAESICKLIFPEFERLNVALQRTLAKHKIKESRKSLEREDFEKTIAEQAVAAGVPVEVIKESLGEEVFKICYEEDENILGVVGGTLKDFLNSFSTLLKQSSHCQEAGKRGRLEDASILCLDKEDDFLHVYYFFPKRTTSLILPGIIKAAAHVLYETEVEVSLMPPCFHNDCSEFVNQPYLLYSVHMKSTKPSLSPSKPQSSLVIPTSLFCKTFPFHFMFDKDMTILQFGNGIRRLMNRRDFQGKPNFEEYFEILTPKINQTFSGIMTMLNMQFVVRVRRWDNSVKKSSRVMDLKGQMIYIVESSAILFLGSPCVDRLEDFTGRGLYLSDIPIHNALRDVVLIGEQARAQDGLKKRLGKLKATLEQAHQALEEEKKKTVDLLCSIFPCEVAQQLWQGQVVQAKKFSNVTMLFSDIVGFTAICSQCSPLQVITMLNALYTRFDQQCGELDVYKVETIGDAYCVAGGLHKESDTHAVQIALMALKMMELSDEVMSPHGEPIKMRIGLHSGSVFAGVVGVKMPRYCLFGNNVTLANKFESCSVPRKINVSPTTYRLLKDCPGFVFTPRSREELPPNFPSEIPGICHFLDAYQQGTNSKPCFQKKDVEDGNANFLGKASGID
Procedure, shortened: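 HEK293 cells with endogenous sGC were pretreated with 0.5 mM IBMX for 15 min at 37 °C, then exposed to test compound plus sodium nitroprusside for 10 min at 37 °C.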

[3] = tested on: Thoracic aortic rings; assay: Thoracic aortic rings assay (Example 19a; IBMX as 100% inhibition); conditions: compound at 10 μM, rat thoracic aortic rings contracted with 100 ng/mL phenylephrine
Experimental: Thoracic aortic rings were dissected from anesthetized (isoflurane) male Sprague-Dawley rats weighing 275-299 g. Tissues were immediately transferred to ice-cold Krebs-Henseleit solution, which had been aerated with 95% O2 and 5% CO2 for 30 minutes. Following removal of connective tissue, aortic sections were cut into 4 rings (˜2 mm each) and suspended on 2 L-shaped hooks, with one hook fixed at the bottom of the tissue bath (Schuler Organ Bath, Harvard Apparatus) and the other connected to a force transducer (F30 Force Transducer, Harvard Apparatus). Baths contained Krebs Henseleit solution (10 mL) heated to 37° C. and aerated with 95% O2 and 5% CO2. Rings were brought to an initial tension of 0.3-0.5 g and gradually raised to a resting tension of 1.0 g over 60 minutes. Rings were rinsed with Krebs Henseleit solution (heated to 37° C. and aerated with 95% O2 and 5% CO2) at 15 minute intervals until a stable baseline was obtained. Rings were considered to be stable after a resting tension of 1.0 g was maintained (for approximately 10 minutes) without need for adjustment. Rings were then contracted with 100 ng/mL phenylephrine by adding 100 uL of a 10 μg/mL phenylephrine stock solution. Tissues achieving a stable contraction were then treated in a cumulative, dose dependent manner with test compounds prepared in dimethylsulfoxide (DMSO). In some cases, tissues were rinsed three times over a 5 minute period with Krebs-Heinseleit's solution (heated to 37° C. and aerated with 95% O2 and 5% CO2), allowed to stabilize at baseline, and then used for characterization of other test articles or DMSO effects. All data were collected using the HSE-ACAD software provided by Harvard Apparatus. […] EC50 values were calculated from concentration-response curves generated with GraphPad Prism Software.

[4] = target: T1, Human soluble guanylate cyclase enzyme (hsGC); assay: Purified human sGC enzyme synergy assay in the presence of 1 μM sodium nitroprusside (SNP); format: biochemical; conditions: 30 μM compound, with the addition of SNP
Procedure, shortened: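 Purified human sGC (5 ng) incubated 30 min at 37 °C with compounds at 10 or 30 μM, 1 μM sodium nitroprusside, 300 μM GTP and 1 mM IBMX in Tris pH 8.0 with MgCl2/DTT. cGMP quantified against a standard curve, and specific activity expressed as fold-change over DMSO control.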

[5] = target: T2, soluble guanylate cyclase (sGC); assay: sGC-HEK-cGMP assay run in the absence of SNP (HEK WC assay); format: cell-based; conditions: compound at 30 μM, absence of SNP
Procedure, shortened: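 HEK293 cells with endogenous sGC, preincubated 15 min at 37° C with 0.5 mM IBMX, then exposed to test compound 10 min at 37° C without SNP. Cells lysed in 0.1 M HCl; cGMP quantified by LC/MS against a standard curve. EC50 from concentration-response curves.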

[6] = tested on: Thoracic aortic rings; assay: Alternative thoracic aortic rings assay (Example 19b; resting tension as 100% inhibition); design: species or system rat; conditions: for inhibition at 1 µM: read-out: Percent Relaxation at 1 μM; for inhibition at 3 µM: read-out: Percent Relaxation at 3 μM; for pEC50: read-out: Aortic Ring EC50
Procedure, shortened: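 Aortic rings (~2 mm) from male Sprague-Dawley rats (275-299 g) held at 1.0 g resting tension in Krebs-Henseleit at 37 °C under 95% O2/5% CO2, then precontracted with 100 ng/mL phenylephrine. Compounds in DMSO added cumulatively; relaxation recorded by force transducer and EC50 taken from concentration-response curves.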

[7] = read-out: HEK WC Assay (% Emax at 10 μM with 10 uM SNP)
[8] = read-out: HEK WC Assay (% Emax at 10 μM/with 10 uM SNP)
[9] = read-out: HEK WC Assay (% Emax at 30 μM with 10 uM SNP)
[10] = read-out: HEK WC Assay (% Emax at 30 μM/with 10 uM SNP)
[11] = read-out: HEK WC Assay in the presence of 10 uM SNP EC50

T1 sequence (Q02153 whole entry): as the sequence (Q02153 whole entry) above
T1 sequence (Q02108 whole entry): as the sequence (Q02108 whole entry) above

SMILES	sGC Enzyme (fold increase at 30 μM with SNP) [4]	sGC Enzyme (fold increase at 30 μM) ([1]; 30 μM compound)	HEK WC Assay (fold increase at 30 μM in the absence of SNP) [5]	HEK WC Assay (fold increase at 30 μM in the presence of 10 μM SNP) [2]	Emax [2, 7]	Emax at 10 µM [2, 8]	Emax [2, 9]	Emax at 30 µM [2, 10]	pEC50 [2, 11]	further results
Fc1ccccc1Cn1nc(-c2ccccn2)cc1-c1nccs1 [Compound I-27]	–	–	–	–	–	–	–	–	–	sGC Enzyme (specific activity at 10 μM) ([1]; 10 μM compound): C (C = 100 to <200); sGC Enzyme (fold increase at 10 μM without SNP) ([1]; 10 μM compound, without SNP): B (B = 2 to <5 fold increase); sGC Enzyme (specific activity at 30 μM) ([1]; 30 μM compound): D (D = 200 to <500); sGC Enzyme (fold increase at 30 μM without SNP) ([1]; 30 μM compound, without SNP): B (B = 2 to <5 fold increase); Emax at 10 µM ([2]; read-out: HEK WC Assay (% Emax at 10 uM/with 10 uM SNP)): 20 to 40%; Emax at 30 µM ([2]; read-out: HEK WC Assay (% Emax at 30 uM/with 10 uM SNP)): 40 to 60%; inhibition at 10 µM ([3]; read-out: Percent Relaxation at 10 μM): 77.2%
Nc1cc(C(F)(F)F)nc(-c2cc(-c3ccon3)n(Cc3ccccc3F)n2)n1 [Compound I-117]	A (A = no increase to <2 fold increase)	A (A = no increase to <2 fold increase)	B (B = 1 to <2 fold increase)	B (B = 1 to <2 fold increase)	10 to 20%	10 to 20%	0 to 10%	0 to 10%	–	–
C=CCOC1(c2cnc(-c3cc(-c4ccon4)n(Cc4ccccc4F)n3)nc2N)CC1 [Compound I-118, 5-(1-(allyloxy)cyclopropyl)-2-(1-(2-fluorobenzyl)-5-(isoxazol-3-yl)-1H-pyrazol-3-yl)pyrimidin-4-amine]	D (D = 10 to <30 fold increase)	C (C = 5 to <10 fold increase)	D (D = 5 to <10 fold increase)	E (E = 10 to <20 fold increase)	60 to 80%	60 to 80%	40 to 60%	40 to 60%	4.00 to 4.22	–
Nc1nc(-c2cc(-c3ccon3)n(Cc3ccccc3F)n2)ncc1C1(O)CC1 [Compound I-119, I-(4-amino-2-(1-(2-fluorobenzyl)-5-(isoxazol-3-yl)-1H-pyrazol-3-yl)pyrimidin-5-yl)cyclopropanol]	D (D = 10 to <30 fold increase)	B (B = 2 to <5 fold increase)	C (C = 2 to <5 fold increase)	E (E = 10 to <20 fold increase)	100 to 120%	> 120%	100 to 120%	> 120%	> 4.70	Percent Relaxation at 1 μM ([6]; Table 10B): C (C = 20 to <40%); Percent Relaxation at 3 μM ([6]; Table 10B): E (E = 60 or <80%); Percent Relaxation at 10 μM ([6]; 10 μM, Table 10B): G (G = 100 to <120%); inhibition at 1 µM ([6]; Rattus norvegicus, Table 10A): 20 to 40%; inhibition at 3 µM ([6]; Rattus norvegicus, Table 10A): 60 to 80%; inhibition at 10 µM ([6]; Rattus norvegicus, 10 μM, Table 10A, read-out: Percent Relaxation at 10 μM): 100 to 120%; pEC50 ([6]; Rattus norvegicus, Table 10A): > 5.70; pEC50 ([6]; Table 10B): > 5.70
Nc1nc(-c2cc(-c3ccon3)n(Cc3ccccc3F)n2)ncc1N=C(c1ccccc1)c1ccccc1 [Compound I-123, N5-(diphenylmethylene)-2-(1-(2-fluorobenzyl)-5-(isoxazol-3-yl)-1H-pyrazol-3-yl)pyrimidine-4,5-diamine]	B (B = 2 to <5 fold increase)	A (A = no increase to <2 fold increase)	B (B = 1 to <2 fold increase)	C (C = 2 to <5 fold increase)	10 to 20%	10 to 20%	20 to 40%	20 to 40%	–	–
Nc1nc(-c2nn(Cc3ccccc3F)c3ncccc23)ncc1C1CC1 [Reference Compound, BAY 41-2272, reference compound]	–	–	–	–	–	–	–	–	–	Percent Relaxation at 10 μM [3]: 100%

Second part, led by results:

sGC Enzyme (fold increase at 30 μM with SNP) [4]	sGC Enzyme (fold increase at 30 μM) ([1]; 30 μM compound)	HEK WC Assay (fold increase at 30 μM in the absence of SNP) [5]	HEK WC Assay (fold increase at 30 μM in the presence of 10 μM SNP) [2]	Emax [2, 7]	Emax at 10 µM [2, 8]	Emax [2, 9]	Emax at 30 µM [2, 10]	pEC50 [2, 11]	SMILES	further results
D (D = 10 to <30 fold increase)	D (D = 10 to <30 fold increase)	E (E = 10 to <20 fold increase)	F (F = 20 to <30 fold increase)	100 to 120%	> 120%	60 to 80%	60 to 80%	–	CC(C)(C)CC(=O)Nc1cnc(-c2cc(-c3ccon3)n(Cc3ccccc3F)n2)nc1N [Compound I-124]	pEC50 [2]: > 4.70
D (D = 10 to <30 fold increase)	C (C = 5 to <10 fold increase)	D (D = 5 to <10 fold increase)	F (F = 20 to <30 fold increase)	80 to 100%	80 to 100%	80 to 100%	80 to 100%	> 4.70	Nc1nc(-c2cc(-c3ccon3)n(Cc3ccccc3F)n2)ncc1NC(=O)OCc1ccccc1 [Compound I-125]	–
D (D = 10 to <30 fold increase)	D (D = 10 to <30 fold increase)	E (E = 10 to <20 fold increase)	F (F = 20 to <30 fold increase)	100 to 120%	> 120%	100 to 120%	100 to 120%	> 4.70	Nc1nc(-c2cc(-c3ccon3)n(Cc3ccccc3F)n2)ncc1NC(=O)c1ccccc1 [Compound I-126]	Percent Relaxation at 1 μM ([6]; Table 10B): F (F = 80 to <100%); Percent Relaxation at 3 μM ([6]; Table 10B): G (G = 100 to <120%); inhibition at 1 µM ([6]; Rattus norvegicus, Table 10A): 80 to 100%; inhibition at 3 µM ([6]; Rattus norvegicus, Table 10A): 100 to 120%; pEC50 ([6]; Rattus norvegicus, Table 10A): > 5.70; pEC50 ([6]; Table 10B): > 5.70
D (D = 10 to <30 fold increase)	C (C = 5 to <10 fold increase)	D (D = 5 to <10 fold increase)	E (E = 10 to <20 fold increase)	60 to 80%	20 to 40%	20 to 40%	20 to 40%	–	CC(C)(C)NC(=O)c1cnc(-c2cc(-c3ccon3)n(Cc3ccccc3F)n2)nc1N [Compound I-136]	pEC50 [2]: > 4.70; Emax ([2]; read-out: HEK WC Assay (% Emax at 1 μM with 10 uM SNP)): 40 to 60%
C (C = 5 to <10 fold increase)	B (B = 2 to <5 fold increase)	C (C = 2 to <5 fold increase)	D (D = 5 to <10 fold increase)	40 to 60%	100 to 120%	40 to 60%	20 to 40%	4.22 to 4.40	COc1ccc(C2=Nc3nc(-c4cc(-c5ccon5)n(Cc5ccccc5F)n4)ncc3C(C)(C)O2)cc1 [Compound I-137]	–
